Measurements published in ChEMBL document CHEMBL6074712, “Optimization of Potent and Selective Cyclohexyl Acid ERAP1 Inhibitors Using Structure- and Property-Based Drug Design” (ACS Med Chem Lett, 2024).

Assay: physchem
Conditions: buffer
Description: Aqueous solubility of compound

| SMILES | solubility kinetic [µg/mL] |
| --- | --- |
| O=C(CN1C(=O)COc2ccc(Cl)cc21)NC1(C(=O)O)CCCCC1 | ≥ 112 |
| O=C(Cn1c(=O)oc2ccc(-c3ccccc3)cc21)NC1(C(=O)O)CCCCC1 | ≥ 157 |
| O=C(CN1C(=O)COc2ccc(C(F)(F)F)cc21)NC1(C(=O)O)CCCCC1 | ≥ 172 |
